The test system of series [1] is HT-29 tumor. The series can be described thus: Biodistribution of [^111In]ITDA2 in HT-29 tumor cancer-bearing mouse. The series is classed as in vivo. Particulars: from Tables 8 and 9. The procedure:
HT-29 cells (5×10^6 cells/mouse) and MDA-MB-231 cells (1×10^7 cells/mouse) were subcutaneously inoculated into the left shoulders of 5-week old male BALB/c nude mice, respectively, and the mice were used when the tumor diameter reached 6 to 10 mm. A saline solution (100 μL) in which [^111In]ITDA2 (40 kBq) had been dissolved was administered to each of the HT-29 tumor or MDA-MB-231 tumor cancer-bearing mice (n=5) via the tail vein. The HT-29 tumor cancer-bearing mice were slaughtered after the lapse of 1, 4, 8, and 24 hours from the administration, the MDA-MB-231 tumor cancer-bearing mouse was slaughtered after the lapse of 24 hours from the administration, and the blood, spleen, pancreas, stomach, intestines, kidney, liver, heart, lungs, brain, tumor, and muscle were recovered from each of the mice. The weight of each organ was measured, and the amount of radioactivity in each organ was measured by using a gamma counter. The accumulation of radioactivity in each organ except for stomach was expressed by % injected dose/g organ obtained by dividing the ratio of the amount of radioactivity of each organ to the administered amount of radioactivity by the organ weight. The stomach was expressed by % injected dose.

Series [2] deals with T1, CA-IX (Homo sapiens, UniProt Q16790). Briefly: Affinity of non-radioactive HIC205 for CA-IX measured by Biacore. The series is classed as binding. Set-up: purchased R&D Systems Inc. The procedure:
The affinity was measured by using Biacore (manufactured by GE Healthcare). Human CA-IX (manufactured by R&D Systems Inc.) was immobilized on a sensor chip (CM7) by an amino coupling method. After non-radioactive HIC205 was dissolved in 100% dimethyl sulfoxide (DMSO), the obtained solution was diluted with a running buffer in a stepwise manner by 10 times, and a non-radioactive HIC205 solution containing 0.1% DMSO was finally prepared. Based on this, a 2-fold dilution series was prepared with the running buffer containing 0.1% DMSO, and the measurement was performed. In this regard, the composition of the running buffer was 0.01 M HEPES (pH 7.4), 0.15M sodium chloride, and 0.005% v/v Surfactant P20. The sensorgram obtained from each concentration was directly curve fitted by a non-linear least-squares method, and the affinity was calculated.

Series [3] deals with T1, CA-IX. The series can be described thus: In vitro autoradiography of tumor sections using [^123I]HIC205. The class given is binding. Set-up: Fresh-frozen sections (each 14 μm) were prepared from a tumor having a tumor volume of around 200 mm^3; from tissue. The procedure:
Fresh-frozen sections (each 14 μm) were prepared from a tumor having a tumor volume of around 200 mm^3, and then the prepared fresh-frozen sections were sufficiently air dried. The dried fresh-frozen sections were immersed in Tris-buffered saline (TBS), and then immersed in a TBS adjusted so as to have 5 kBq/ml of [^123I]HIC205 and a solution containing 400 μM acetazolamide in the TBS (both contained 0.1% dimethyl sulfoxide (DMSO)), and both the sections were incubated at the same time (at 37° C. for 30 minutes). After that, the resultant sections were washed with TBS and 40% ethanol (EtOH)-containing TBS, respectively, and then air dried. The air-dried sections were each brought into contact with an imaging plate (IP), and were read out by a bioimaging analyzer BAS2000 (manufactured by FUJIFILM Corporation). The section used for autoradiography (ARG) was directly subjected to immunohistochemistry that was performed by using a goat-derived anti-CA-IX antibody.
The localization of the radioactivity of [^123I]HIC205 and the difference in the binding of [^123I]HIC205 between the individual treatments are shown FIG. 1.
The results of the comparison of the localization of the radioactivity of [^123I]HIC205 with the expression of CA-IX are shown in FIGS. 2A and 2B. […] The region between two arrows indicates the part where the binding of [^123I]HIC205 and the expression of CA-IX are not consistent. Further, FIG. 2B is an enlarged view showing the region between the two arrows of the result of immunohistochemical staining of animal B shown in the lower left of FIG. 2A, in which the result of immunohistochemical staining of FIG. 2A was shown on the left side, and an enlarged view of the region between the two arrows was shown on the right side. The parts indicated by the arrows indicate the overlap of the section.

In general, Kd refers to the concentration at which binding is half-saturated.

Turning to `NS(=O)(=O)c1nn2cc(-c3ccc(NC(=O)CN4CCN(CC(=O)O)CCN(CC(=O)Nc5ccc(-c6cn7nc(S(N)(=O)=O)sc7n6)cc5)CCN(CC(=O)O)CC4)cc3)nc2s1` [ITDA2, 2,2′-(4,10-bis(2-oxo-2-((4-(2-sulfamoylimidazo[2,1-b][1,3,4]thiadiazol-6-yl)phenyl)amino)ethyl)-1,4,7,10-tetraazacyclododecan-1,7-diyl) diacetic acid], in series [1], the “Tumor accumulation compared with ITDA1” value is recorded as “lower values as compared with those of ITDA1”, the “Tumor/blood ratio compared with ITDA1” value is listed as “lower values as compared with those of ITDA1” and the “Tumor/muscle ratio compared with ITDA1” value is reported as “almost the same value as that of ITDA1”.

`NS(=O)(=O)c1nn2cc(-c3ccc(I)cc3)nc2s1` [non-radioactive HIC205, 6-(4-iodophenyl)imidazo[2,1-b][1,3,4]thiadiazole-2-sulfonamide]: in series [2] (immobilized human CA-IX, n = 1), the Kd was determined as 0.109 nM. Further, the “Dissociation constant (×10^−3)” value in series [2] (n = 1) was 0.903 ×10^−3 [1/s]. In addition, the kon in series [2] (n = 1, read-out: Binding constant (×10^5)) was determined as 8.31e+06 M⁻¹ s⁻¹.

For the compound `NS(=O)(=O)c1nn2cc(-c3ccc([123I])cc3)nc2s1` [[^123I]HIC205], the “Binding on the tumor section with simultaneous incubation with acetazolamide” value in series [3] (400 μM acetazolamide) is on record as “decreased”. In series [3] (5 kBq/ml, 37° C. for 30 minutes, washed with TBS), the “Binding on the tumor section (autoradiogram)” value is listed as “confirmed with contrast on the tumor section”. Also, in series [3] (40% ethanol-containing TBS wash), the “Localization of the radioactivity after washing the section with 40% ethanol” value is “significantly reduced”. In addition, in series [3] (conclusion of autoradiography), the “Binding ability to CA-IX” value is “has binding ability to CA-IX”. In series [3] (two animals), the “Localization of radioactivity compared with expression site of CA-IX (immunohistochemical staining)” value is “mostly consistent”.
